Measurements published in publication PMC6072100, “Exploring the links between peptoid antibacterial activity and toxicity” (MedChemComm, 2017).
Like-named read-outs stand apart in the source and are kept apart here. Square brackets hold non-standard residues; d marks the D form. Peptide text beside a SMILES is read from it. N(4-F-Bzl)Gly = O=C(O)CNCc1ccc(F)cc1; Gly(N-(CH2)6NH2) = NCCCCCCNCC(=O)O; Gly(N-2-aminoethyl) = NCCNCC(=O)O; Nspe = C[C@H](NCC(=O)O)c1ccccc1; NhArg = N=C(N)NCCCCNCC(=O)O; NPentylGly = CCCCCNCC(=O)O; Nphe = O=C(O)CNCc1ccccc1; Nlys = NCCCCNCC(=O)O

Experiments:
Assay type in all cases: cell-based, human
[1] = Skin cell toxicity assay with HaCaT (alamarBlue); conditions: human, HaCaT cells (keratinocytes)
Summary of the method: (§1)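 HaCaT cells seeded at 2x10^4 per well 24 hours before 1-hour exposure to a 2–100 µM triplicate dilution series in DMEM high glucose with 10% FBS at 37 °C, 5% CO2. Viability assessed with alamarBlue; ED50 defined as dose killing 50% of cells, derived from dose-response data.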

HaCaT cells = experiment: Skin cell toxicity assay with HaCaT (alamarBlue)
Summary of the method: as §1

HepG2 cells = experiment: Cytotoxicity assay with HepG2 (alamarBlue)
Summary of the method: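 HepG2 cells (2 × 10^4/well, seeded 1 day earlier) were exposed to compounds (2–100 μM dilution series, triplicate) for 1 h in reduced volume, then diluted with medium and incubated 24 h at 37 °C. Viability was read by alamarBlue after 2 h (Ex 560/Em 600 nm), and ED50 (dose killing 50% of cells) came from dose-response curves.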

[2] = human, HaCaT cells (keratinocytes), 24 h
[3] = dose that kills 50% of cells, 2–100 μM, 1 h with compound then 24 h, alamarBlue, read-out: ED50 HaCaT

Compound	CC50 at 24 h ([1]; ED50 HaCaT)	ED50 HaCaT (HaCaT cells; [2])	ED50 HepG2 (HepG2 cells; human, HepG2 cells, 24 h)	toxicity to HaCaT or HepG2 (in words) (HaCaT cells)	ED50 HepG2 (HepG2 cells)	CC50 at 24 h [1, 3]	ED50 HaCaT (HaCaT cells)
NCCCCCCNCC(=O)N(CC(=O)N(CC(=O)N(CCCCCCN)CC(=O)N(CC(=O)N(CC(=O)N(CCCCCCN)CC(=O)N(CC(=O)N(CC(=O)N(CCCCCCN)CC(=O)N(CC(=O)N(CC(N)=O)Cc1ccccc1)Cc1ccccc1)Cc1ccccc1)Cc1ccccc1)Cc1ccccc1)Cc1ccccc1)Cc1ccccc1)Cc1ccccc1 [Peptoid 1, (NahNpheNphe)4] (H-[Gly(N-(CH2)6NH2)][Nphe][Nphe][Gly(N-(CH2)6NH2)][Nphe][Nphe][Gly(N-(CH2)6NH2)][Nphe][Nphe][Gly(N-(CH2)6NH2)][Nphe][Nphe]-NH2)	100 µM	>100 µM	>100 µM	–	–	–	–
NCCCCCCNCC(=O)N(CC(=O)N(CC(=O)N(CCCCCCN)CC(=O)N(CC(=O)N(CC(=O)N(CCCCCCN)CC(=O)N(CC(=O)N(CC(N)=O)Cc1ccccc1)Cc1ccccc1)Cc1ccccc1)Cc1ccccc1)Cc1ccccc1)Cc1ccccc1 [Peptoid 2, (NahNpheNphe)3] (H-[Gly(N-(CH2)6NH2)][Nphe][Nphe][Gly(N-(CH2)6NH2)][Nphe][Nphe][Gly(N-(CH2)6NH2)][Nphe][Nphe]-NH2)	100 µM	>100 µM	>100 µM	–	–	–	–
NCCCCCCNCC(=O)N(CC(=O)N(CC(=O)N(CCCCCCN)CC(=O)N(CC(=O)N(CC(N)=O)Cc1ccccc1)Cc1ccccc1)Cc1ccccc1)Cc1ccccc1 [Peptoid 3, (NahNpheNphe)2] (H-[Gly(N-(CH2)6NH2)][Nphe][Nphe][Gly(N-(CH2)6NH2)][Nphe][Nphe]-NH2)	100 µM	>100 µM	>100 µM	–	–	–	–
NCCCCNCC(=O)N(CC(=O)N(CC(=O)N(CCCCN)CC(=O)N(CC(=O)N(CC(=O)N(CCCCN)CC(=O)N(CC(=O)N(CC(=O)N(CCCCN)CC(=O)N(CC(=O)N(CC(N)=O)Cc1ccccc1)Cc1ccccc1)Cc1ccccc1)Cc1ccccc1)Cc1ccccc1)Cc1ccccc1)Cc1ccccc1)Cc1ccccc1 [Peptoid 4, (NLysNpheNphe)4] (H-[Nlys][Nphe][Nphe][Nlys][Nphe][Nphe][Nlys][Nphe][Nphe][Nlys][Nphe][Nphe]-NH2)	36 µM	–	>100 µM	negligible toxicity	> 100 µM	–	–
NCCCCNCC(=O)N(CC(=O)N(CC(=O)N(CCCCN)CC(=O)N(CC(=O)N(CC(=O)N(CCCCN)CC(=O)N(CC(=O)N(CC(N)=O)Cc1ccccc1)Cc1ccccc1)Cc1ccccc1)Cc1ccccc1)Cc1ccccc1)Cc1ccccc1 [Peptoid 5, (NLysNpheNphe)3]	100 µM	>100 µM	>100 µM	–	–	–	–
NCCCCNCC(=O)N(CC(=O)N(CC(=O)N(CCCCN)CC(=O)N(CC(=O)N(CC(N)=O)Cc1ccccc1)Cc1ccccc1)Cc1ccccc1)Cc1ccccc1 [Peptoid 6, (NLysNpheNphe)2] (H-[Nlys][Nphe][Nphe][Nlys][Nphe][Nphe]-NH2)	100 µM	>100 µM	>100 µM	–	–	–	–
NCCNCC(=O)N(CC(=O)N(CC(=O)N(CCN)CC(=O)N(CC(=O)N(CC(=O)N(CCN)CC(=O)N(CC(=O)N(CC(=O)N(CCN)CC(=O)N(CC(=O)N(CC(N)=O)Cc1ccccc1)Cc1ccccc1)Cc1ccccc1)Cc1ccccc1)Cc1ccccc1)Cc1ccccc1)Cc1ccccc1)Cc1ccccc1 [Peptoid 7, (NaeNpheNphe)4] (H-[Gly(N-2-aminoethyl)][Nphe][Nphe][Gly(N-2-aminoethyl)][Nphe][Nphe][Gly(N-2-aminoethyl)][Nphe][Nphe][Gly(N-2-aminoethyl)][Nphe][Nphe]-NH2)	100 µM	>100 µM	>100 µM	negligible toxicity	–	–	–
NCCNCC(=O)N(CC(=O)N(CC(=O)N(CCN)CC(=O)N(CC(=O)N(CC(=O)N(CCN)CC(=O)N(CC(=O)N(CC(N)=O)Cc1ccccc1)Cc1ccccc1)Cc1ccccc1)Cc1ccccc1)Cc1ccccc1)Cc1ccccc1 [Peptoid 8, (NaeNpheNphe)3] (H-[Gly(N-2-aminoethyl)][Nphe][Nphe][Gly(N-2-aminoethyl)][Nphe][Nphe][Gly(N-2-aminoethyl)][Nphe][Nphe]-NH2)	100 µM	>100 µM	>100 µM	–	–	–	–
NCCNCC(=O)N(CC(=O)N(CC(=O)N(CCN)CC(=O)N(CC(=O)N(CC(N)=O)Cc1ccccc1)Cc1ccccc1)Cc1ccccc1)Cc1ccccc1 [Peptoid 9, (NaeNpheNphe)2] (H-[Gly(N-2-aminoethyl)][Nphe][Nphe][Gly(N-2-aminoethyl)][Nphe][Nphe]-NH2)	100 µM	>100 µM	>100 µM	–	–	–	–
C[C@@H](c1ccccc1)N(CC(N)=O)C(=O)CN(C(=O)CN(CCCCCCN)C(=O)CN(C(=O)CN(C(=O)CN(CCCCCCN)C(=O)CN(C(=O)CN(C(=O)CNCCCCCCN)[C@@H](C)c1ccccc1)[C@@H](C)c1ccccc1)[C@@H](C)c1ccccc1)[C@@H](C)c1ccccc1)[C@@H](C)c1ccccc1 [Peptoid 11, (NahNspeNspe)3] (H-[Gly(N-(CH2)6NH2)][Nspe][Nspe][Gly(N-(CH2)6NH2)][Nspe][Nspe][Gly(N-(CH2)6NH2)][Nspe][Nspe]-NH2)	100 µM	>100 µM	>100 µM	–	–	–	–
C[C@@H](c1ccccc1)N(CC(N)=O)C(=O)CN(C(=O)CN(CCCCCCN)C(=O)CN(C(=O)CN(C(=O)CNCCCCCCN)[C@@H](C)c1ccccc1)[C@@H](C)c1ccccc1)[C@@H](C)c1ccccc1 [Peptoid 12, (NahNspeNspe)2]	100 µM	>100 µM	>100 µM	–	–	–	–
COc1ccc(CN(CC(N)=O)C(=O)CN(Cc2ccc(OC)cc2)C(=O)CN(CCCCN)C(=O)CN(Cc2ccc(OC)cc2)C(=O)CN(Cc2ccc(OC)cc2)C(=O)CN(CCCCN)C(=O)CN(Cc2ccc(OC)cc2)C(=O)CN(Cc2ccc(OC)cc2)C(=O)CN(CCCCN)C(=O)CN(Cc2ccc(OC)cc2)C(=O)CN(Cc2ccc(OC)cc2)C(=O)CNCCCCN)cc1 [Peptoid 19, (NLysNpmbNpmb)4]	41 µM	–	>100 µM	–	–	–	–
NCCCCNCC(=O)N(CC(=O)N(CC(=O)N(CCCCN)CC(=O)N(CC(=O)N(CC(=O)N(CCCCN)CC(=O)N(CC(=O)N(CC(N)=O)Cc1ccc(F)cc1)Cc1ccc(F)cc1)Cc1ccc(F)cc1)Cc1ccc(F)cc1)Cc1ccc(F)cc1)Cc1ccc(F)cc1 [Peptoid 23, (NLysNpfbNpfb)3] (H-[Nlys][N(4-F-Bzl)Gly][N(4-F-Bzl)Gly][Nlys][N(4-F-Bzl)Gly][N(4-F-Bzl)Gly][Nlys][N(4-F-Bzl)Gly][N(4-F-Bzl)Gly]-NH2)	100 µM	>100 µM	–	negligible toxicity	–	–	–
C[C@@H](c1ccccc1)N(CC(N)=O)C(=O)CN(Cc1ccc(F)cc1)C(=O)CN(CCCCN)C(=O)CN(C(=O)CN(Cc1ccc(F)cc1)C(=O)CN(CCCCN)C(=O)CN(C(=O)CN(Cc1ccc(F)cc1)C(=O)CNCCCCN)[C@@H](C)c1ccccc1)[C@@H](C)c1ccccc1 [Peptoid 27, (NLysNpfbNspe)3]	–	–	–	–	–	52 µM	–
C[C@@H](c1ccccc1)N(CC(N)=O)C(=O)CN(C(=O)CN(CCCCN)C(=O)CN(Cc1ccc(F)cc1)C(=O)CN(Cc1ccc(F)cc1)C(=O)CN(CCCCN)C(=O)CN(C(=O)CN(C(=O)CNCCCCN)[C@@H](C)c1ccccc1)[C@@H](C)c1ccccc1)[C@@H](C)c1ccccc1 [Peptoid 29, (NLysNspeNspe)(NLysNpfbNpfb)(NLysNspeNspe)]	–	–	–	–	–	65 µM	–
CCCCCNCC(=O)N(CC(=O)N(CC(=O)N(CCCCN)CC(=O)N(CC(=O)N(CC(=O)N(CCCCN)CC(=O)N(CC(=O)N(CC(=O)N(CCCCN)CC(=O)N(CC(=O)N(CC(N)=O)[C@@H](C)c1ccccc1)[C@@H](C)c1ccccc1)[C@@H](C)c1ccccc1)[C@@H](C)c1ccccc1)[C@@H](C)c1ccccc1)[C@@H](C)c1ccccc1)[C@@H](C)c1ccccc1)[C@@H](C)c1ccccc1 [Peptoid 30, (NamyNspeNspe)[(NLysNspeNspe)]3]	12 µM	–	–	–	–	–	–
CCCCCN(CC(=O)N(CC(=O)N(CC(=O)N(CCCCN)CC(=O)N(CC(=O)N(CC(N)=O)[C@@H](C)c1ccccc1)[C@@H](C)c1ccccc1)[C@@H](C)c1ccccc1)[C@@H](C)c1ccccc1)C(=O)CN(C(=O)CN(C(=O)CN(CCCCN)C(=O)CN(C(=O)CN(C(=O)CNCCCCN)[C@@H](C)c1ccccc1)[C@@H](C)c1ccccc1)[C@@H](C)c1ccccc1)[C@@H](C)c1ccccc1 [Peptoid 32, (NLysNspeNspe)2(NamyNspeNspe)(NLysNspeNspe)]	20 µM	–	–	–	–	–	–
CCCCCNCC(=O)N(CC(=O)N(CC(=O)N(CCCCNC(=N)N)CC(=O)N(CC(=O)N(CC(=O)N(CCCCC)CC(=O)N(CC(=O)N(CC(=O)N(CCCCNC(=N)N)CC(=O)N(CC(=O)N(CC(N)=O)[C@@H](C)c1ccccc1)[C@@H](C)c1ccccc1)[C@@H](C)c1ccccc1)[C@@H](C)c1ccccc1)[C@@H](C)c1ccccc1)[C@@H](C)c1ccccc1)[C@@H](C)c1ccccc1)[C@@H](C)c1ccccc1 [Peptoid 40, [(NamyNspeNspe)(NhArgNspeNspe)]2] (H-[NPentylGly][Nspe][Nspe][NhArg][Nspe][Nspe][NPentylGly][Nspe][Nspe][NhArg][Nspe][Nspe]-NH2)	31 µM	–	–	–	–	–	–
(NhArgNmfbNmfb)4 [Peptoid 36]	–	–	–	–	21 µM	–	28 µM
